Measured values taken from the supplement of paper PMC8882468.
± gives the standard deviation of the averaged measurements.

What was measured:
Experiment in all cases: CTG-3D luminescence at 96 h relative to day-0 seeding control (ratio to day 0); higher = more growth / less cytotoxicity; PDxO 3D drug screen, 96 h, CTG-3D normalised to day-0 seeding control.
HCI-005.E2 = test system: HCI-005.E2 (organoid from a breast cancer xenograft with a HER2-positive history)
HCI-008 = test system: HCI-008 (organoid from a HER2-enriched breast cancer xenograft)
HCI-010 = test system: HCI-010 (organoid from a breast cancer xenograft)
HCI-015 = test system: HCI-015 (organoid from a triple-negative breast cancer xenograft)
HCI-012 = test system: HCI-012 (organoid from a breast cancer xenograft)
HCI-019 = test system: HCI-019 (organoid from a triple-negative breast cancer xenograft)
HCI-011.E2 = test system: HCI-011.E2 (organoid from an ER-positive breast cancer xenograft)

C[C@]12CC[C@@H]3c4ccc(O)cc4C[C@@H](CCCCCCCCC[S+]([O-])CCCC(F)(F)C(F)(F)F)[C@H]3[C@@H]1CC[C@@H]2O (stereo partly drawn) [fulvestrant]
CTG-3D luminescence at 96 h
Details | 12.5 pM | 0.00025 µM | 0.005 µM | 0.1 µM | 1 µM | 10 µM | 100 µM | 625 fM
HCI-005.E2 | 1.53 ± 0.49 | 2.5 ± 1 | 1.79 ± 0.46 | 2.34 ± 0.46 | 1.61 ± 0.073 | 1.5 ± 0.26 | 1.34 ± 0.072 | 1.72 ± 0.46
HCI-011.E2 | 1.73 ± 0.18 | 1.6 ± 0.35 | 1.24 ± 0.45 | 1.51 ± 0.47 | 1.37 ± 0.65 | 1.82 ± 0.47 | 1.73 ± 0.64 | 1.62 ± 0.27

CTG-3D luminescence at 96 h
Details | 12.5 pM | 0.00025 µM | 0.005 µM | 0.1 µM | 1 µM | 10 µM | 100 µM | 625 fM
HCI-008, days in culture: 228 | 1.6 ± 0.34 | 1.76 ± 0.31 | 1.34 ± 0.093 | 1.68 ± 0.074 | 1.62 ± 0.27 | 1.36 ± 0.14 | 1.29 ± 0.022 | 1.89 ± 0.35
HCI-008, days in culture: 244 | 1.4 | 1.74 | 1.94 | 2.15 | 1.59 | 1.9 | 1.66 | 2.27
HCI-010, days in culture: 52 | 2.11 | 2.41 | 2.26 | 2.46 | 2.2 | 2.56 | 1.97 | 2.06
HCI-010, days in culture: 65 | 1.66 | 1.76 | 1.86 | 1.82 | 1.96 | 1.86 | 1.66 | 1.76
HCI-010, days in culture: 103 | 3.27 | 3.34 | 3.47 | 3.46 | 3.26 | 3.15 | 2.99 | 3.29
HCI-011.E2, days in culture: 74 | 2.77 | 2.62 | 1.87 | 2.1 | 2.1 | 2.2 | 2.02 | 2.9
HCI-012, days in culture: 143 | 2.28 | 2.33 | 2.23 | 2.41 | 2.43 | 2.43 | 2.25 | 1.92
HCI-012, days in culture: 162 | 2.65 | 2.28 | 1.8 | 3.05 | 2.77 | 3.17 | 2.71 | 2.92
HCI-012, days in culture: 201 | 2.77 | 2.3 | 1.52 | 1.85 | 2.21 | 1.48 | 2.1 | 1.53
HCI-015, days in culture: 172 | 2.41 | 1.73 | 2.32 | 0.904 | 2.25 | 1.34 | 1.39 | 3.06
HCI-015, days in culture: 191 | 1.78 | 1.35 | 1.29 | 1.06 | 1.56 | 1.23 | 1.35 | 1.56
HCI-015, days in culture: 218 | 2.19 | 1.3 | 2.13 | 1.72 | 1.77 | 2.1 | 1.76 | 2.24
HCI-019, days in culture: 110 | 2.08 | 1.72 | 1.89 | 2.26 | 1.97 | 2.13 | 1.73 | 1.57
HCI-019, days in culture: 131 | 2.86 | 3.69 | 2.72 | 3.98 | 3.13 | 2.98 | 1.94 | 4.13
HCI-019, days in culture: 152 | 2.85 | 3 | 3.24 | 2.41 | 1.37 | 2.3 | 1.6 | 2.94

Cc1cc(Nc2ncc(Cl)c(Nc3ccccc3S(=O)(=O)C(C)C)n2)c(OC(C)C)cc1C1CCNCC1 [ceritinib]
CTG-3D luminescence at 96 h
Details | 12.5 pM | 0.00025 µM | 0.005 µM | 0.1 µM | 1 µM | 10 µM | 100 µM | 625 fM
HCI-005.E2 | 1.54 ± 0.21 | 1.76 ± 0.44 | 1.79 ± 0.51 | 1.7 ± 0.32 | 1.44 ± 0.19 | 0.347 ± 0.25 | 0.0328 ± 0.061 | 1.97 ± 0.61
HCI-011.E2 | 1.68 ± 0.72 | 1.409 ± 0.0053 | 1.37 ± 0.39 | 1.85 ± 0.22 | 1.4 ± 0.34 | 0.353 ± 0.48 | -0.00338 ± 0.0019 | 1.92 ± 0.77

CTG-3D luminescence at 96 h
Details | 12.5 pM | 0.00025 µM | 0.005 µM | 0.1 µM | 1 µM | 10 µM | 100 µM | 625 fM
HCI-008, days in culture: 228 | 1.69 ± 0.45 | 1.81 ± 0.11 | 1.55 ± 0.49 | 1.3 ± 0.59 | 1.15 ± 0.37 | -0.138 ± 0.21 | -0.142 ± 0.2 | 1.59 ± 0.23
HCI-008, days in culture: 244 | 1.42 | 1.74 | 1.85 | 1.55 | 1.47 | 0.0065 | -0.00443 | 2.17
HCI-010, days in culture: 52 | 2.34 | 2.15 | 2.46 | 2.54 | 2.64 | -0.0117 | -0.0342 | 2.26
HCI-010, days in culture: 65 | 1.61 | 1.61 | 1.79 | 1.94 | 1.83 | 0.00782 | -0.00536 | 1.74
HCI-010, days in culture: 103 | 3.59 | 3.48 | 3.35 | 3.68 | 3.99 | 0.0149 | -0.0118 | 3.09
HCI-011.E2, days in culture: 74 | 1.46 | 1.59 | 1.77 | 2.11 | 1.4 | 0.0662 | -0.00371 | 1.72
HCI-012, days in culture: 143 | 2.17 | 1.8 | 1.89 | 2.08 | 1.92 | 0.0093 | -0.00596 | 2.32
HCI-012, days in culture: 162 | 2.32 | 2.04 | 1.68 | 2.9 | 2.19 | 0.0143 | -0.00682 | 2.82
HCI-012, days in culture: 201 | 2.62 | 2.34 | 1.57 | 1.57 | 2.44 | 0.00702 | -0.00682 | 1.54
HCI-015, days in culture: 172 | 1.51 | 1.75 | 2.29 | 1.44 | 1.69 | 0.00586 | -0.0049 | 2.67
HCI-015, days in culture: 191 | 2.15 | 1.47 | 1.3 | 0.962 | 1.19 | 0.00448 | -0.00428 | 1.68
HCI-015, days in culture: 218 | 1.77 | 1.1 | 1.51 | 1.54 | 1.33 | 0.00686 | -0.00473 | 1.61
HCI-019, days in culture: 110 | 1.94 | 1.72 | 1.21 | 2.24 | 1.78 | 0.533 | -0.00638 | 2.49
HCI-019, days in culture: 131 | 2.4 | 3 | 2.64 | 3.8 | 2.36 | 0.0735 | -0.00829 | 3.86
HCI-019, days in culture: 152 | 2.83 | 2.4 | 1.79 | 1.51 | 1.37 | 0.01 | -0.00373 | 2.52

C=CCn1c(=O)c2cnc(Nc3ccc(N4CCN(C)CC4)cc3)nc2n1-c1cccc(C(C)(C)O)n1 [adavosertib]
CTG-3D luminescence at 96 h
Details | 12.5 pM | 0.00025 µM | 0.005 µM | 0.1 µM | 1 µM | 10 µM | 100 µM | 625 fM
HCI-005.E2 | 1.7 ± 0.51 | 1.72 ± 0.46 | 2.03 ± 0.8 | 2.09 ± 0.47 | 1.11 ± 0.33 | 0.745 ± 0.16 | 0.376 ± 0.023 | 1.73 ± 0.35
HCI-011.E2 | 1.73 ± 0.27 | 1.67 ± 0.39 | 1.49 ± 0.12 | 1.89 ± 0.29 | 1.41 ± 0.85 | 1.73 ± 0.77 | 1.51 ± 0.68 | 1.62 ± 0.45

CTG-3D luminescence at 96 h
Details | 12.5 pM | 0.00025 µM | 0.005 µM | 0.1 µM | 1 µM | 10 µM | 100 µM | 625 fM
HCI-008, days in culture: 228 | 2.01 ± 0.21 | 1.96 ± 0.074 | 1.71 ± 0.41 | 1.89 ± 0.26 | 0.689 ± 0.11 | 0.46 ± 0.17 | 0.251 ± 0.017 | 1.88 ± 0.45
HCI-008, days in culture: 244 | 1.42 | 1.98 | 1.93 | 1.91 | 0.808 | 0.555 | 0.252 | 2.27
HCI-010, days in culture: 52 | 2.37 | 2.26 | 2.59 | 1.87 | 1 | 0.21 | 0.0806 | 2.17
HCI-010, days in culture: 65 | 1.57 | 1.67 | 1.73 | 1.64 | 0.816 | 0.276 | 0.126 | 1.61
HCI-010, days in culture: 103 | 3.65 | 3.76 | 3.59 | 2.95 | 1.62 | 0.459 | 0.242 | 3.13
HCI-011.E2, days in culture: 74 | 1.66 | 2.29 | 2.11 | 2.08 | 2.2 | 2.35 | 1.38 | 2.46
HCI-012, days in culture: 143 | 1.94 | 1.86 | 2.1 | 2.56 | 2.11 | 0.226 | 0.0167 | 2.06
HCI-012, days in culture: 162 | 2.21 | 2.27 | 2.02 | 3.54 | 2.56 | 0.304 | 0.0282 | 3.03
HCI-012, days in culture: 201 | 2.67 | 2.07 | 1.6 | 1.66 | 2.25 | 0.091 | 0.0326 | 1.71
HCI-015, days in culture: 172 | 2.15 | 2.15 | 2.3 | 1.04 | 1.39 | 0.498 | 0.139 | 2.33
HCI-015, days in culture: 191 | 2.26 | 1.49 | 1.67 | 0.981 | 0.612 | 0.246 | 0.0546 | 1.6
HCI-015, days in culture: 218 | 1.97 | 1.76 | 1.56 | 1.43 | 0.699 | 0.252 | 0.0554 | 1.82
HCI-019, days in culture: 110 | 2.05 | 1.58 | 1.23 | 1.52 | 0.377 | 0.536 | 0.502 | 2.37
HCI-019, days in culture: 131 | 2.63 | 3.93 | 2.52 | 2.25 | 0.386 | 0.381 | 0.4 | 3.56
HCI-019, days in culture: 152 | 2.43 | 2.43 | 3.28 | 1.42 | 0.511 | 0.452 | 0.519 | 2.53
